Tests used:
[1] = target: T1, KCC2 (Rattus norvegicus, UniProt Q63633); test: Somato-dendritic EGABA gradient (chloride extrusion), whole-cell patch clamp of hippocampal neurons; type: cell-based
T1 construct: endogenous in cells; host or cells: primary rat hippocampal neurons (E18-19 Sprague-Dawley)
T1 sequence (Q63633 1-1116 isoform Q63633-2): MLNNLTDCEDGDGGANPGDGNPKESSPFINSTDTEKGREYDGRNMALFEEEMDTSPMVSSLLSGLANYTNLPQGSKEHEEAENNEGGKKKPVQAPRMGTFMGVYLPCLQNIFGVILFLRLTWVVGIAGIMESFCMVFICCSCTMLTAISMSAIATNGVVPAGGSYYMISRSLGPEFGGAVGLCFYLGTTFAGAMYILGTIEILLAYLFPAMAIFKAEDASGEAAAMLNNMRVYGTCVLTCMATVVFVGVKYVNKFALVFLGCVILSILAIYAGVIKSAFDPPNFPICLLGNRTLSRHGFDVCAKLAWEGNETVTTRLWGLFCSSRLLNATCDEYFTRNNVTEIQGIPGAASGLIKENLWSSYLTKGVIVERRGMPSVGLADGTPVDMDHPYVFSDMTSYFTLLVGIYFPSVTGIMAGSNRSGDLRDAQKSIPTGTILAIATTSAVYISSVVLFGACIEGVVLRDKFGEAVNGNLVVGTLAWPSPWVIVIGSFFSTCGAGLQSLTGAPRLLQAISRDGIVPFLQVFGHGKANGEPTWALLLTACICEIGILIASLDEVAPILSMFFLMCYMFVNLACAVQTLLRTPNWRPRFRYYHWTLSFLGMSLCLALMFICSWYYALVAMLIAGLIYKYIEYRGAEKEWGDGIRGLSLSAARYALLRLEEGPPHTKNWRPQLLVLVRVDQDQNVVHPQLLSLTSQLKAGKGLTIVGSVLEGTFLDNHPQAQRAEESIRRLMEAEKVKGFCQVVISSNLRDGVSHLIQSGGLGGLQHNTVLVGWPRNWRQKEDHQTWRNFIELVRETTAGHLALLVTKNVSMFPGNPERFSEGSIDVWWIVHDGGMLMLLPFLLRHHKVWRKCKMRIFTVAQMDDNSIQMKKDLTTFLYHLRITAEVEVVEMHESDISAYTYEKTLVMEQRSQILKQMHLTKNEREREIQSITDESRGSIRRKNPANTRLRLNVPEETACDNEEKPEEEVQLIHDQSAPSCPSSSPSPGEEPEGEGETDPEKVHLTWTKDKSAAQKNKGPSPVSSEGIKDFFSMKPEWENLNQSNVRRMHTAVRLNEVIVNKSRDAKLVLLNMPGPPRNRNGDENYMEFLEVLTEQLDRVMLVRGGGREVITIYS

[2] = system: OSR1; test: Immunoblot of OSR1 phosphorylation and expression in hippocampo-cortical slices; type: cell-based, rat; settings: vs DMSO
Description: For all experiments on hippocampal cultures, neurons were pre-incubated for 2 hours with either DMSO, PCPZ or CLP257 in a CO2 incubator set at 37° C. Drugs were added directly to the culture medium. For electrophysiology experiments, neurons were also recorded in presence of these drugs in the bath. For biochemistry experiments on rat hippocampo-cortical slices, slices were incubated with either DMSO (vehicle), CLP257, PCPZ, WNK463 or sodium orthovanadate for 2 hours in interface chambers set at 37° C. For human tissue experiments, slices were pre-incubated with either DMSO, CLP257 or PCPZ for 2 hours in interface chambers set at 37° C. and then also recorded in presence of these compounds.
8-weeks old Sprague Dawley male rats were anesthetized by intraperitoneal ketamine/xylazine injection (120/10 mg/kg) and perfused transcardially with ice-cold (0-4° C.), oxygenated solution (O2/CO2 95/5%), containing (in mM): N-methyl-d-glucamine 93, KCl 2.5, NaH2PO4 1.2, NaHCO330, HEPES 20, D-glucose 20, ascorbic acid 5, sodium pyruvate 3, MgSO4 10 and CaCl2) 0.5 (300-310 mOsm, pH7.4). Brains were removed and transverse hippocampo-cortical slices (400 m thick) were prepared in the same solution using a vibratome (HM650V, Microm). Slices were then incubated for 2-hours with DMSO, the KCC2 enhancers (CLP257, PCPZ, WNK43) or sodium orthovanadate in an interface chamber containing artificial cerebrospinal fluid (ACSF) composed of (in mM): D-glucose 10, KCl 3.5, NaHOC3 26, NaH2PO4 1.25, NaCl 126, CaCl2) 1.6 and MgCl2 1.2 (290 mOsm), equilibrated with 5% CO2 in 95% 02. After the treatments, slices were washed with cold PBS, instantaneously frozen with liquid nitrogen and stored at −80° C.
Slices were mechanically lysed on ice, using a 2 mL Dounce, in a buffer containing (in mM): Tris/HCl, pH 7.5 50, EGTA 1, EDTA 1, sodium orthovanadate 1, sodium-B-glycerophosphate 10, sodium fluoride 50, sodium pyrophosphate 5, sucrose 270, benzamidine 1, phenylmethylsulfonyl fluoride 2, Triton […], (v/v) 2-mercaptoethanol 0.1% and protease inhibitors (Roche). After complete homogenization, samples were centrifuged (16,000×g at 4° C. for 10 min) and the supernatant was collected. Protein quantification was done using Pierce BCA Protein Assay kit (Thermo Scientific) with BSA as standard.
Samples were subjected to electrophoresis on polyacrylamide gradient gels (4-12% bis-tris gels) and transferred to nitrocellulose membranes. Membranes were rinsed with TBS-tween solution (TBST; Invitrogen) and blocked with 5% (w/v) skim milk. The membranes were then immunoblotted in 5% (w/v) skim milk in TBST with a primary antibody against KCC2 (rabbit, 07-432; Millipore; 1:1000), or phosphotyrosine (mouse, clone 4G10, Millipore, 1:1000), and a mouse primary antibody against neuron-specific beta-III tubulin overnight at 4° C. (clone 2G10; T8578; Sigma-Aldrich; 1:1000). They were then washed three times with distillated water, three times with TBST-milk solution and incubated for one hour at RT with goat secondary antibodies anti-rabbit IRDye 800 (1:3000; LI-COR), goat anti-mouse IRDye 700 (1:3000; LI-COR) or donkey anti-sheep DyLight 800 (1:3000; Rockland). Membranes were then washed again with TBST three times and one time with TBS. Fluorescence was detected and the relative intensities of immunoblot bands were determined using Odyssey infrared imaging system (LI-COR Bioscience). […]

Row | SMILES | somato-dendritic gradient of EGABA (ΔEGABA) ([1]; 100 μM CLP257, 2 h, RubiGABA 30 μM uncaging, control 5.32±1.08) | change of OSR1 phosphorylation (S325 residue) ([2]; 100 μM CLP257, 2 h) | change of total expression of OSR1 ([2]; 100 μM CLP257, 2 h) | somato-dendritic gradient of EGABA (ΔEGABA) ([1]; 10 μM PCPZ, 2 h, isoguvacine 100 μM, control 6.56±0.83) | change of OSR1 phosphorylation (S325 residue) ([2]; 10 μM PCPZ, 2 h) | change of total expression of OSR1 ([2]; 10 μM PCPZ, 2 h)
1 | O=C1N=C(N2CCCCN2)S/C1=C\c1ccc(F)cc1O [CLP257, (5Z)-5-[(4-Fluoro-2-hydroxyphenyl)methylene]-2-(tetrahydro-1-(2H)-pyridazinyl)-4(5H)-thiazolone] | 9.70±1.13 mV/100 μm | +11.50±18.50% | −2.24±8.27% |  |  | 
2 | CN1CCN(CCCN2c3ccccc3Sc3ccc(Cl)cc32)CC1 [PCPZ, prochlorperazine] |  |  |  | 11.50±1.53 mV/100 μm | +11.80±23.50% | +26.3±12.8%

— patent publication US20240197728A1, “METHODS AND PHARMACEUTICAL COMPOSITIONS FOR TREATING REFRACTORY EPILEPSY” (INSERM (INSTITUT NATIONAL DE LA SANTÉ ET DE LA RECHERCHE …, priority 2021, published 2024)
